Read-outs that look alike come from different tables or passages of the source.

Series [1] deals with human cancer cells [ヒトがん細胞]. As to the kind of experiment: Growth inhibition / cytotoxicity in cancer cell lines (summary over lines). It counts as cell-based. Particulars: for anticancer activity / inhibitory effect on cancer cell lines (in words): 48 h, MTS; for cancer cell selectivity of growth inhibition and cytotoxicity (in words): cancer cells versus normal fibroblasts.
Series [2] deals with human cancer cells [ヒトがん細胞]. As to the kind of experiment: FACS cell cycle analysis (summary, cell line not specified). It is filed as cell-based.
Series [3] relates to HFF2/T cells (normal human fibroblast line immortalized by introduction of human telomerase) [HFF2/T細胞(ヒトテロメラーゼの導入により不死化した正常ヒト線維芽細胞株)]. As to the kind of experiment: MTS growth inhibition assay, HFF2/T normal fibroblasts. It is filed as cell-based. Particulars: 48 h.
Series [4] relates to H1299 cells (lung cancer-derived cell line) [H1299細胞(肺がん由来細胞株)]. As to the kind of experiment: MTS growth inhibition assay, H1299. It is filed as cell-based, human. Particulars: 48 h.
For series [5], the target named is T1, Cdt1-geminin binding [Cdt1-geminin結合] (Homo sapiens, UniProt O75496+Q9H211).
T1 construct: made in house
T1 sequence (Q9H211 1-546): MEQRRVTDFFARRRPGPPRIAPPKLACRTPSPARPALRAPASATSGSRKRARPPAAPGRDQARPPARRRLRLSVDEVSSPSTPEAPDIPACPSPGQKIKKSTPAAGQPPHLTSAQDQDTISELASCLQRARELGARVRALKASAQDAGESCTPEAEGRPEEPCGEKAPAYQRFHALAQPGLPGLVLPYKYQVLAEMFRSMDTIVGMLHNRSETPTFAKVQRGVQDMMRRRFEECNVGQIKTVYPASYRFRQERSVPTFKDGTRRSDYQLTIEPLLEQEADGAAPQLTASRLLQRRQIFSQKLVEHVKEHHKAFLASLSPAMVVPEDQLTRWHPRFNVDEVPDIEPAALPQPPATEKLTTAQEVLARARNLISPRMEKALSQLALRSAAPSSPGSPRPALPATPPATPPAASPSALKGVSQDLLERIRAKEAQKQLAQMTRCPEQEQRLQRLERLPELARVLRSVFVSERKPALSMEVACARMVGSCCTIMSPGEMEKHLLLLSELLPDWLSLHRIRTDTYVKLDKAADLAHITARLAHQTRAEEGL
T1 sequence (O75496 1-209): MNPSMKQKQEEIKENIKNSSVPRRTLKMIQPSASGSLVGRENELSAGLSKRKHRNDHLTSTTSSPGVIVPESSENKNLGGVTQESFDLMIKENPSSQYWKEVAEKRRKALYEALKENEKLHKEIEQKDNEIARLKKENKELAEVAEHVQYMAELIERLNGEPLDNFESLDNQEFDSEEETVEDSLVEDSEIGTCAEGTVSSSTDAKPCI
As to the kind of experiment: In vitro Cdt1-geminin binding inhibition assay (modified ELISA).

Series [6] has as its system T98G cells (glioblastoma-derived cell line) [T98G細胞(グリオブラストーマ由来細胞株)]. As to the kind of experiment: MTS growth inhibition assay, T98G. It is filed as cell-based, human. Particulars: 48 h.
For the next series, the system named is T98G cells [T98G細胞]. As to the kind of experiment: FACS cell cycle analysis, T98G. It counts as cell-based, human. The note with it: 10 μM, 24 h.
In series [7] the test system is HeLa cells (cervical cancer-derived cell line) [HeLa細胞(子宮頸癌由株細胞株)]. As to the kind of experiment: MTS growth inhibition assay, HeLa. It counts as cell-based, human. Particulars: 48 h.
The subject of a further series is HFF2/T cells [HFF2/T細胞]. As to the kind of experiment: FACS cell cycle analysis, HFF2/T normal fibroblasts. Particulars: 10 μM, 24 h. It counts as cell-based, human.

For the molecule `CCn1c2ccccc2c2cc(/C=N/NC(=O)c3ccc(O)cc3O)ccc21` [(E)-N'-((9-エチル-9H-カルバゾール-3-イル)メチレン)-2,4-ジヒドロキシベンゾヒドラジド], the “toxicity toward certain cancer cell lines (in words)” value in series [1] (certain cancer cell lines, not specified) is “ある種のがん細胞株に対する毒性が低下する”.

As for `CCn1c2ccccc2c2cc(/C=N/NC(=O)c3ccccc3C)ccc21` [HND-007, (E)-N'-((9-Ethyl-9H-carbazol-3-yl)methylene)-2-methylbenzohydrazide], in series [2], the “cell cycle phase inhibited” value is listed as “主にM期の進行阻害を行っているものと予想される”. The “growth inhibition / toxicity toward normal fibroblasts or normal cells (in words)” value in series [3] is recorded as “正常線維芽細胞に対しても高い毒性を示す”; in series [3] (listed as 2- methyl体), “正常細胞に対しても高い毒性を示す場合がある”. Moreover, the “anticancer activity / inhibitory effect on cancer cell lines (in words)” value (“anticancer activity / inhibitory effect” for short) in series [1] (listed as 2- methyl体) is reported as “がん細胞株に対する抑制効果を高める”; in [1] (listed as (E)-N'-((9-エチル-9H-カルバゾール-3-イル)メチレン)-2-メチルベンゾヒドラジド), “殺細胞性が高い”. For the same molecule, the “cancer cell selectivity of growth inhibition and cytotoxicity (in words)” value in series [1] was “選択性は低く”.

For the molecule `CCn1c2ccccc2c2cc(/C=N/NC(=O)c3ccccc3I)ccc21` [NP-10, (E)-N'-((9-Ethyl-9H-carbazol-3-yl)methylene)-2-iodobenzohydrazide], the “50% growth inhibitory concentration” value in [4], in series [6] and in series [7] was “数” throughout. Further, the “cell cycle phase inhibited” value in series [2] and in series [2] (listed as 2-iodo体) was “主にM期の進行阻害” in each case. Further, in series [5], the “Cdt1-geminin binding inhibitory activity (in words)” value was “Cdt1-geminin結合の阻害活性は示さない”. Also, in the series on T98G cells [T98G細胞], the “effect on cell cycle” value is “主にS期で停止”. In [3] (HFF2/T versus HeLa), the “concentration needed for 50% growth inhibition of HFF2/T relative to HeLa” value was roughly 10 fold. Also, the “growth inhibition / toxicity toward normal fibroblasts or normal cells (in words)” value in series [3] is “正常線維芽細胞に対する増殖抑制効果は低い”. Also, the entries for the “effect on cell cycle progression” value with HFF2/T cells [HFF2/T細胞] and with HFF2/T cells [HFF2/T細胞] (listed as 2-iodo体) were “細胞周期進行に影響を与えなかった” and “正常細胞の細胞周期の進行に影響を与えず”, respectively. For the same molecule, the figures for the “cancer cell selectivity of growth inhibition and cytotoxicity (in words)” value in [1], in series [1] (listed as 2-iodo体) and in series [1] (listed as 2-ヨード体) were “がん細胞選択的に細胞増殖を阻害し、細胞毒性を発揮した”, “がん細胞選択的に細胞増殖を阻害し、細胞毒性を発揮する” and “がん細胞に対して選択的に毒性を発揮する”, respectively. In [1] (human cancer cells, lines not specified), the “concentration that inhibits growth of human cancer cells” value is given as “数”. Further, the cell death result in series [1] (human cancer cells, several μM) is reported as “細胞死”.

For the molecule `CCn1c2ccccc2c2cc(/C=N/NC(=O)c3cccc(I)c3)ccc21` [NP-13, (E)-N'-((9-Ethyl-9H-carbazol-3-yl)methylene)-3-iodobenzohydrazide], the “anticancer activity / inhibitory effect” value is recorded as “抗がん活性を失ってしまう” in series [1] and “抗がん活性が比較的低く” in [1] (listed as 3-iodo体).

For `CCn1c2ccccc2c2cc(/C=N/NC(=O)c3ccc(I)cc3)ccc21` [NP-14, (E)-N'-((9-Ethyl-9H-carbazol-3-yl)methylene)-4-iodobenzohydrazide], the figures for the “Cdt1-geminin binding inhibitory activity (in words)” value in series [5] (listed as 4-iodo体) and in series [5] (listed as 4-ヨード体) were “Cdt1-gemininの試験管内での結合を阻害しうる” and “Cdt1-geminin結合阻害活性を持ち”, respectively. In series [5] (read-out: 50% binding inhibitory concentration, Cdt1-geminin), the IC50 is roughly 40 µM. The “growth inhibition / toxicity toward normal fibroblasts or normal cells (in words)” value in [3] was “正常線維芽細胞に対しても高い毒性を示す”; in series [3] (listed as 4-iodo体) it was “正常線維芽細胞に対しても高い毒性を示しうる”. The “anticancer activity / inhibitory effect” value is “NP-10と同等あるいはより高い抗がん活性を示す” in series [1], 2-iodo体と同等、あるいはより高い抗がん活性を示す in series [1] (listed as 4-iodo体) and “抗がん活性も示した” in series [1] (listed as 4-ヨード体). The “cancer cell selectivity of growth inhibition and cytotoxicity (in words)” value in series [1] is reported as “がん細胞選択性は低下していた”.

As to `CCn1c2ccccc2c2cc(C=O)ccc21` [Y-R1, N-ethylcarbazole-3-carboxaldehyde, reference compound], the “cancer cell selectivity of growth inhibition and cytotoxicity (in words)” value in series [1] is listed as “そのような効果は認められなかった”.

Turning to `NNC(=O)c1ccccc1I` [Y-R2, 2-iodobenzohydrazide, reference compound], the “cancer cell selectivity of growth inhibition and cytotoxicity (in words)” value in [1] is given as “そのような効果は認められなかった”.

The record behind these values is JP2015013808A, “G2/m期停止及び細胞死を誘導するベンゾヒドラジド誘導体” (Kyushu University NUC, priority 2011, dated 2013).
